Measurements as given in PMC3681751, “Identification of a Novel Antimicrobial Peptide from Human Hepatitis B Virus Core Protein Arginine-Rich Domain (ARD)” (PLoS Pathogens, 2013).
Residues, ends and D or L forms follow the SMILES beside them.

Assays:
[1] = LPS/Lipid A competition ELISA; assay type: binding; settings: 10 nM peptide, 1 µg LPS per well, E. coli Lipid A 0 to 10 µg/ml, 1 hour 37°C
Method: (§1) Several kinds of peptide-LPS or peptide-Lipid A binding assays were performed in this study: 1) Streptavidine-conjugated beads (Dynabeads MyOne Streptavidin T1, Invitrogen) were blocked by P. aeruginosa LPS (Sigma) at 37°C for 1.5 hour. After washing with PBST (PBS, pH 7.4 containing 0.1% (w/v) Tween-20), aliquots containing 250 pmol streptavidine-conjugated beads were incubated with a reaction mixture overnight at 4°C. The reaction mixture was prepared by mixing increasing amounts of biotinylated peptide HBc147-183 (0, 0.004, 0.02, 0.1, 0.5 and 2.5 µM) and 5 µg/ml P. aeruginosa LPS (Sigma) or 200 µg/ml E. coli lipid A (Sigma), at 37°C for 3 hour. After incubation overnight at 4°C, the reduction of LPS (or Lipid A) in the supernatants were measured by the Limulus Amebocyte Lysate (LAL) test (Charles River Endosafe) with an ELISA reader (Molecular Devices). The amount (EU/ml) of LPS was calculated according to the standard curve prepared with Endosafe Control Srandard Endotoxin. […] After trypsinization, the trypsin-released LPS in the supernatants were collected and measured by the Limulus Amebocyte Lysate (LAL) test. […] Plate-bound HBc147-183 was measured by streptavidin conjugated with HRP (1∶10000 dilution) for 1 hour at 37°C. […] The absorption was measured at 450 nm with a reference wavelength at 655 nm.

[2] = tested on: Staphylococcus aureus ATCC 19636; assay: Bacterial load in infected mice; assay type: in vivo, mouse; settings: 10 mg/kg i.p. at 1 hour, sampled 4 hours post-inoculation, n = 5
Method: Three-week old male ICR mice (19 to 21 g) were purchased from BioLASCO (Taiwan). Overnight culture of bacteria in BHI broth (Difco) was subcultured in fresh BHI broth to log phase. Inoculums were diluted in BHI broth to indicated densities. To test the acute toxicity of ARD peptide in vivo, ICR male mice were inoculated intraperitoneally (i.p.) with 10 and 20 mg/kg HBc147-183 in PBS, respectively. Each group contained 5 mice. After peptide injection, the number of dead mice was recorded daily for 7 days post-injection. To test the antimicrobial activity of the ARD peptide in vivo, all mice were inoculated i.p. with Staphylococcus aureus ATCC 19636 (4×10^6 CFU/mouse) in BHI broth. Peptide HBc147-183 (10 mg/kg) was administered i.p. at 1, 1.5 and 2 hours post-inoculation. PBS (10 ml/kg) control was administered at 1 hour post-inoculation. […] Mortality was monitored daily for 7 days post-inoculation. […] The mice were anesthetized first before transferring to the IVIS imaging system (IVIS spectrum), and luminescence was measured with an exposure time of 1 minutes or less. The image system measured the number of photons and translated the data to false color images that depicted the region of strong luminescence with red, moderate luminescence with yellow and green, and mild luminescence with blue. […] Total flux (RLU) of region of interest (ROI) was quantified by the IVIS imaging software.

[3] = In vitro peptide-Lipid A binding on streptavidin beads (LAL test); set-up: species or system Escherichia coli; settings: biotinylated peptide 0-2.5 µM on streptavidin beads, 200 µg/ml lipid A, triplicates
Method: as §1

[4] = tested on: K. pneumonia (ATCC 13884); assay type: cell-based, Klebsiella pneumoniae; settings: 3 h at 37°C in phosphate buffer pH 7.2; triplicate
P. aeruginosa = assay: Killing kinetics; assay type: cell-based, Pseudomonas aeruginosa; settings: 2 µM peptide (1×MBC), 37°C, triplicates
Method: For measurement of killing kinetics, bacteria and peptides were prepared as described above. Fifty µl of bacteria were mixed with fifty µl of peptides at the concentrations corresponding to MBC and were incubated at 37°C. At the indicated time, bacteria were serially diluted and placed on Mueller-Hinton broth agar plates for the viability measurement.

In the case of `CC(C)[C@H](NC(=O)[C@@H](NC(=O)[C@@H](N)[C@@H](C)O)C(C)C)C(=O)N[C@@H](CCCNC(=N)N)C(=O)N[C@@H](CCCNC(=N)N)C(=O)N[C@@H](CCCNC(=N)N)C(=O)NCC(=O)N[C@@H](CCCNC(=N)N)C(=O)N[C@@H](CO)C(=O)N1CCC[C@H]1C(=O)N[C@@H](CCCNC(=N)N)C(=O)N[C@@H](CCCNC(=N)N)C(=O)N[C@@H](CCCNC(=N)N)C(=O)N[C@H](C(=O)N1CCC[C@H]1C(=O)N[C@@H](CO)C(=O)N1CCC[C@H]1C(=O)N[C@@H](CCCNC(=N)N)C(=O)N[C@@H](CCCNC(=N)N)C(=O)N[C@@H](CCCNC(=N)N)C(=O)N[C@@H](CCCNC(=N)N)C(=O)N[C@@H](CO)C(=O)N[C@@H](CCC(N)=O)C(=O)N[C@@H](CO)C(=O)N1CCC[C@H]1C(=O)N[C@@H](CCCNC(=N)N)C(=O)N[C@@H](CCCNC(=N)N)C(=O)N[C@@H](CCCNC(=N)N)C(=O)N[C@@H](CCCNC(=N)N)C(=O)N[C@@H](CO)C(=O)N[C@@H](CCC(N)=O)C(=O)N[C@@H](CO)C(=O)N[C@@H](CCCNC(=N)N)C(=O)N[C@@H](CCC(=O)O)C(=O)N[C@@H](CO)C(=O)N[C@@H](CCC(N)=O)C(=O)N[C@@H](CS)C(=O)O)[C@@H](C)O` [HBc147-183] (H-TVVRRRGRSPRRRTPSPRRRRSQSPRRRRSQSRESQC-OH; N-terminus and C-terminus assumed), the “Binding of peptide to plate-coated LPS with increasing Lipid A” value [1] is reported as “significantly decreased”, the “Bacterial load in blood, liver and spleen” value [2] is reported as ~10^4 cfu/ml and the “Reduction of bacterial load in blood, liver and spleen vs PBS control” value ([2]; P<0.01) is reported as 100 fold. For the same compound, the “Binding to Lipid A” value [3] was “Lipid A can bind to HBc147-183 directly”, the “Antimicrobial activity, MBC” value [4] was 9.18 µg/mL and the “Time to complete killing” value (P. aeruginosa) was at most 20 min.
